In patent US5663207A, “Gem-dichlorocyclopropanes as antitumor agents” (priority 1995, dated 1997):
“Also recorded” adds a separate entry of the source.

How the values were obtained:
[1] = Stability observed during isolation and storage; assay type: physicochemical; details: on concentration, drying or storage
Experimental: The structures of all compounds were supported by their proton NMR spectra, which were measured on either a Varian EM-360A or XL-300 spectrometer. The spectra are reported in parts per million in CDCl3 unless otherwise noted, with tetramethysilane as the internal standard. Infrared spectra were obtained from KBr pellets on a Beckman Acculab 1 spectrometer and were consistent with the assigned structures. Silica gel (for example, obtained commercially from J. T. Baker) of approximately 40 μm diameter was used for flash chromatography (STILL, W. C., KAHN, M. AND MITRA, A. (1978), "Rapid chromatographic technique for preparative separations with moderate resolutions", Journal of Organic Chemistry, 43, 2923), which was performed at 5-10 psi. Petroleum ether was of bp 30°-60° C. When necessary, solvents or reagents were dried by appropriate methods. Evaporations were carried out in vacuo on a rotary evaporator or under a stream of dry N2. Melting points were taken on a Thomas-Hoover capillary melting point apparatus and are uncorrected. Reaction progress and product purity were monitored by analytical TLC on strips of Eastman Kodak plastic-backed SiO2 60 F254 or Al2 O3 F254. Developed strips were viewed under light of 254 and 365 nm wavelengths. Elemental analyses were done by Midwest Microlab Ltd., Indianapolis, IN. Acceptable elemental results are denoted in Table I by the formula, followed by the elements analyzed. Melting points and yields of all compounds were based on pure samples unless otherwise noted, are listed in Table I. Para-Bromoanisole, p-methoxydeoxybenzoin, anisole, p-methoxybenzaldehyde, and 2,3-bis-(p-methoxyphenyl)-acrylic acid and trans-p-methoxystilbene (the olefin), were purchased from Aldrich & Co. The cyclopropanes 1,1-dichloro-cis-2-(p-hydroxyphenyl)-3-phenylcyclopropane (9), and its trans isomer 1,1-dichloro-trans-2-(p-Hydroxyphenyl)-3phenylcyclopropane (17) were prepared from Compounds 8 & 16, respectively. […] Tamoxifen was obtained from Stuart Pharmaceuticals, Division of ICI Americas, Inc., Wilmington, Del. 19897. MER 25 was obtained from the Merrell Dow Research Institute, Division of Merrell Dow Pharmaceuticals, Inc., Cincinnati, Ohio. Protein Assay Reagent, Pierce Chemical Co., Rockford, Ill. 61105. Diethylstilbestrol, β-estradiol, EDTA, DL-dithiothreitol, Sodium molybdate, and Tris (hydroxymethyl) aminomethane hydrochloride were purchased from Sigma Chemical Co., St. Louis, Mo. 63178.
Essentially, the intermediate olefin acids (Compounds 6 & 12) were obtained from a mixed Perkin and Knoevenagel-type condensation involving the reaction of p-methoxyaldehyde (Compound 4) with phenylacetic acid (Compound 5), or p-methoxyphenylacetic acid (Compound 11) in triethylamine and acetic anhydride. To prepare cis-p-methoxystilbene (Compound 7) or bis-(p-methoxy)-cis-stilbene (Compound 13). Decarboxylation of 6 & 12 with quinoline (prevents isomerizations; KLEIN, J. AND MEYER, A. Y. (1964), "The decarboxylation of α-cyano-and α-carboxycinnamic acids", Journal of Organic Chemistry, 29, 1038), and copper chromite at elevated temperature provided 7 & 13. High temperature during distillation caused 8% isomerization to the trans-isomer (15), which was isolated by column chromatography. Dichlorocarbene generation used the catalytic phase transfer method (21, 37) (used extensively in our laboratory) of 50% aqueous solution of NaOH, CHCl3 and benzyltriethylammonium chloride (TEBA) as the anion transfer agent. […]

[2] = target: T1, estrogen receptor (Rattus norvegicus, UniProt P06211); test: Receptor binding assay: displacement of [3H]-estradiol from rat uterine cytosol; design: species or system rat (Sprague-Dawley); details: for RBA (relative binding affinity): relative to estradiol = 100%
T1 construct: ovariectomized rat uterine cytosolic estrogen receptor preparation; from tissue; host or cells: uterine cytosol of ovariectomized Sprague-Dawley rats (immature rats from Sasco are named as uterus source, mature ovariectomized rats)
T1 sequence (P06211 1-600): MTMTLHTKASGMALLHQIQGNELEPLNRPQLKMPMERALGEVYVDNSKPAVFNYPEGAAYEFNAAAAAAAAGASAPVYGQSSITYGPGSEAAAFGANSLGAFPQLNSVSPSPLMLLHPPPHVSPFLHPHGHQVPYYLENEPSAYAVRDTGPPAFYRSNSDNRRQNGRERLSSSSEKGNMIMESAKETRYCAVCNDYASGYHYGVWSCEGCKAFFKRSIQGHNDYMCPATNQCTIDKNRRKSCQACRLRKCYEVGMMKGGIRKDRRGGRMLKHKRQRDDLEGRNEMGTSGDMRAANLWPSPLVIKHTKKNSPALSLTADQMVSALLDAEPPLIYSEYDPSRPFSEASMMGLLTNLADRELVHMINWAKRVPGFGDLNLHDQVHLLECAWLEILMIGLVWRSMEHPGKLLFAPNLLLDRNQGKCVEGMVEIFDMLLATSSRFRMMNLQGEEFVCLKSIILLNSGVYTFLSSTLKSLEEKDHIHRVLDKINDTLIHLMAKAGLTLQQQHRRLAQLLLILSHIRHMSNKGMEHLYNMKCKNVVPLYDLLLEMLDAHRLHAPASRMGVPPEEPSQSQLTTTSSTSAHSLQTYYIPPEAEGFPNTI
Source text: (§1) The biological evaluation of the test compounds consisted of the in vitro rat cytosolic estradiol receptor binding assay, the in vivo immature mouse uterotrophic (estrogenic) and antiuterotrophic (antiestrogenic) assays, and the in vitro suppression of the proliferation of the ER positive MCF-7 human breast cancer cell line. Estradiol (pure agonist), TAM (agonist in mice and antagonist in MCF-7), MER 25 (pure antagonist) and Analog II (antagonist in mice) were used in the assay as standards.
(§2) Vital-free immature female Swiss-Webster mice were obtained at 17-19 days of age from Sasco weighing 8-10 g, and were used in the uterotrophic and antiuterotrophic assays. Immature female Sprague-Dawley rats, obtained at 17-19 days of age from Sasco, weighing 28-33 g, were used as sources of uteri for the estradiol receptor binding assay. Animals were housed in wire topped polycarbonate cages at six animals per cage, with the environment controlled at 25° C. and a 12 h light/dark cycle. The animals received a diet of Wayne Lab Blox rodent chow and tap water ad libitum.
The RBAs of the test compounds were determined by the displacement of [^3 H]-estradiol in vitro, as described previously (DAY, B. W., […], R. A., JAIN, P., PENTO, J. T., MOUSISSIAN, G. K. AND MEYER, K. L. (1991), "Synthesis and biological evaluation of a series of 1,1-dichloro-2,2,3-triarylcyclopropanes as pure antiestrogens", Journal of Medicinal Chemistry, 34, 842; KORENMAN, S. G. (1969), "Comparative binding affinity of estrogens and its relation to estrogenic potency", Steroid, 13, 163). Mature female Sprague-Dawley rats were ovariectomized at least two weeks prior to the receptor binding experiment. Each test compound was assayed at three concentrations in duplicate over a range of 10^-3 -10^-5 M and 10^-6 -10^-8 M for the estradiol standard. The non-specific binding was determined by a parallel incubation of each compound with the addition of diethylstilbestrol to give a final concentration of 2×10^-5 M DES which was sufficient to saturate all the estrogen receptors present in the cytosolic fraction. Specific displacement for each compound was determined by subtraction of nonspecific displacement from total displacement. The [^3 H]-estradioldisplacement curve for each test compound was determined by linear repression analysis and plotted graphically. The relative binding affinity for each compound was calculated (BLISS, C.I. (1967), "The statistics in biology", McGraw Hill, Inc: New York).
^a Determined by competitive radiometric binding assay with rat
uterine cytosol as a source of receptor, [^3 H]estradiol as tracer,
and dextrancoated charcoal as absorbant for free ligand.
^c Binding affinities are expressed relative to that of estradiol =
100% (RBA = relative binding affinity) and are the average of duplicate
determinations minus nonspecific binding.
The relative binding affinities (RBAs), as determined by the competitive radiometric binding assay and measured by [^3 H]-estradiol displacement from the ovariectomized rat uterine cytosolic estrogen receptor preparation, after subtracting non-specific receptor binding, were calculated for all of the synthesized target compounds, TAM, MER 25, Analog II, and estradiol. The displacement curves were plotted as percent receptor-bound [^3 H]-estrodiol versus concentration of test compounds (not shown) and the receptor binding affinity of each compound is presented in Table II.

[3] = system: MCF-7 human breast cancer cells; test: In vitro MCF-7 human breast cancer cell growth inhibition assay; assay type: cell-based; details: for effect on MCF-7 cell growth (in words): 10^-6 M; for inhibition at 1 µM: Homo sapiens, MCF7, read-out: MCF-7 Inhibition
Source text: as §1
MCF-7 (estrogen-receptor positive) human breast cancer cells (obtained from the Michigan Cancer Foundation, Detroit, Mich.) were grown at 37° C. in 75 cm^2 tissue culture (T-75) flasks, as monolayer cultures in RPMI 1640 phenol red-free media supplemented with 2 mM L-glutamine, gentamicin (50 μg/mL), penicillin (100 units/mL), streptomycin (100 μg/mL ) and calf serum (5%). Cultures were grown in an incubator 37° C. in a humid 5% CO2 atmosphere, and fed on alternate days. Expotential growth was maintained by subculturing at eight day intervals when the cells per T-75 flask reached 10 to 12×10^6 cells. Cells were trypsinized, washed and plated in multiwell plates at a density of 5×10^4 cells/well in 3 mL of RPMI 1640 media. The cells were allowed to attach and were in logarithmic growth when the test compounds were added. The test compounds (10^-6 M) in the presence or absence of a 10-fold lower dose of estradiol were dissolved in a polyethylene glycol 400: ethanol (55:45) mixture and added in the culture media in duplicate. Control samples received vehicle alone at the same concentration used in the treatment groups. The final concentration of the vehicle mixture was 0.1% of the incubation media. Cell growth was measured on alternate days using the hemocytometric trypan blue exclusion method. Percent inhibition of MCF-7 cells was calculated as the ratio of the control mean cell count per well minus the treatment group mean cell count per well to the control mean cell count per well, multiplied by 100.
^b % MCF7 inhibition was calculated as follows: […]
Thirteen compounds, Analog II, TAM, and MER 25 were tested for their antiproliferative activity in the MCF-7 human breast cancer cell line (Table II). Compounds were tested at a concentration of 10^-6 M in the presence or absence of 10^-7 M estradiol to assess their ability to alter the growth of the calls (Table II). The 10^-6 M concentration was selected since it was reported that the inhibition of the MCF-7 cells by antiestrogens and TAM occurred either at that concentration or less, and were both selective and estrogen receptor specific. Concentrations of antiestrogens greater than 5×10^-6 M were reported to have nonspecific cytotoxic effects (BRIAND, P. AND […], A. E. (1984), "Effect of estrogen and antiestrogen on the human breast cancer cell line MCF-7 adapted to growth at low serum concentration", Cancer Research, 44, 1114).

[4] = system: Immature Swiss-Webster female mice (uterine weight); test: Uterotrophic assay for estrogenic activity in immature mice; assay type: in vivo, mouse (Swiss-Webster); details: for uterine weight response (estrogenic activity, in words): doses of 5, 25 and 100 μg (total dose)
Source text: The biological evaluation of the test compounds consisted of the in vitro rat cytosolic estradiol receptor binding assay, the in vivo immature mouse uterotrophic (estrogenic) and antiuterotrophic (antiestrogenic) assays, and the in vitro suppression of the proliferation of the ER positive MCF-7 human breast cancer cell line.
as §2
Immature Swiss-Webster female mice (8-15 g) at 17-19 days of age were used. Estradiol was used in the dosage range of […] (total dose) as the assay standard. Each cyclopropyl analogue was examined at doses of 5, 25, and 100 μg (total dose). […] Estrogenic activity was measured as an increase in uterine weight produced by each test compound.

[5] = system: MCF-7 human breast cancer cells; details: cited from earlier work

SMILES: Oc1ccc([C@H]2[C@@H](c3ccccc3)C2(Cl)Cl)cc1 (relative stereo) [Compound 9, 1,1-dichloro-cis-2-(p-hydroxyphenyl)-3-phenylcyclopropane]
- stability (in words) [1]: instability to air and light; also recorded: underwent gradual color changes when concentrated

SMILES: Oc1ccc([C@H]2[C@H](c3ccccc3)C2(Cl)Cl)cc1 (relative stereo) [Compound 17, 1,1-dichloro-trans-2-(p-hydroxyphenyl)-3-phenylcyclopropane]
- stability (in words) [1]: underwent gradual color changes when concentrated

SMILES: COc1ccc(C2(c3ccc(OC)cc3)C(c3ccccc3)C2(Cl)Cl)cc1 (stereo not drawn) [Compound 35, 1,1-Dichloro-2,2-bis-(p-methoxyphenyl)-3-phenylcyclopropane]
- [3H]-estradiol displacement curve (in words) ([2]; rat uterine cytosolic estrogen receptor): dose-dependent displacement curves with shallower slopes than their acetoxy and phenolic analogues
- RBA (relative binding affinity) ([2]; given as dash with footnote e): --^e (Less than 0.01%.)
- effect on MCF-7 cell growth (in words) [3]: did not alter cell growth
- inhibition at 1 µM [3]: < 10%
- uterine weight response (estrogenic activity, in words) [4]: slight increase in uterine weight at doses of 25 and 100 μg
- uterotrophic response on retest (in words) ([4]; retested at 25, 100, and 250 μg): no significant uterotrophic responses

SMILES: Oc1ccc(C2(c3ccc(O)cc3)C(c3ccccc3)C2(Cl)Cl)cc1 (stereo not drawn) [Compound 36]
- stability (in words) [1]: Drying of phenol 36 at a high temperature resulted in the formation of an indene

SMILES: CC(=O)Oc1ccc(C2(c3ccc(OC(C)=O)cc3)C(c3ccccc3)C2(Cl)Cl)cc1 (stereo not drawn) [Compound 37, 1,1-Dichloro-2,2-bis-(p-acetoxyphenyl)-3-phenylcyclopropane]
- RBA (relative binding affinity) ([2]; average of duplicate determinations minus nonspecific binding): 0.08%
- effect on MCF-7 cell growth (in words) [3]: did not alter cell growth
- inhibition at 1 µM [3]: < 10%
- uterine weight response (estrogenic activity, in words) [4]: well below the control group

SMILES: CC/C(=C(\c1ccccc1)c1ccc(OCCN(C)C)cc1)c1ccccc1 [Tamoxifen]
- MCF-7 Inhibition ([5]; 10^-6 M, Day et al., J. Med. Chem. 34, 842-851 (1991)): 25.6%
- concentration at which inhibition of MCF-7 cells occurred ([5]; reported as selective and estrogen receptor specific): ≤ 10^-6 M
